Results published in patent US10717720B2, “Modified compound of andrographolide” (Heilongjiang Zhenbaodao Pharmaceutical Co., Ltd., priority 2015, dated 2020).

Test system: LPS-induced IL-6 release level from THP-1 cells
Experiment: Test of IL-6 release from THP-1 cells (LPS-induced, IL-6 in supernatant detected by CBA)
Format: cell-based
Conditions: Homo sapiens, THP-1, 24 h, read-out: Inhibition rate @ 10 uM
Method in brief: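 THP-1 cells were treated with compound at final 30, 10, 3 and 1 uM, with dexamethasone 100 nM as reference, then stimulated with LPS. The LPS working solution was 800 ng/ml. After 24 h at 37 °C, IL-6 in the supernatant was measured by CBA.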

Structure (SMILES)	inhibition at 10 µM
C=C1CCC2[C@]3(C)CO[C@@H](C4CCCC4)O[C@@H]3CC[C@@]2(C)[C@@H]1CCOc1cc(Cl)ccc1C(=O)O (stereo partly drawn) [Compound 448, 4-chloro-2-(2-((3R,4aR,6aS,7R,10bR)-3-cyclopentyl-6a,10b-dimethyl-8-dihydromethylenedecahydro-1H-naphtho[2,1-d][1,3]dioxin-7-yl)ethoxy)benzoic acid]	< 30%
C=C1CCC2[C@]3(C)CO[C@@H](C4CCCC4)O[C@@H]3CC[C@@]2(C)[C@@H]1CCn1cc(C(=O)O)ccc1=O (stereo partly drawn) [Compound 457, 1-(2-((3R,4aR,6aS,7R,10bR)-3-cyclopentyl-6a,10b-dimethyl-8-dihydromethylene-1H-naphtho[2,1-d][1,3]dioxin-7-yl)ethyl)-6-oxo-1,6-dihydropyridine-3-carboxylic acid]	> 60%

Same assay, conditions: Homo sapiens; inflammatory factor IL-6 detected by CBA; compound 10 uM; LPS-stimulated THP-1 cells, supernatant after 24 hours; read-out: Inhibition rate @ 10 uM

Structure (SMILES)	inhibition at 10 µM
C=C1CCC2[C@]3(C)CO[C@@H](C4CCCC4)O[C@@H]3CC[C@@]2(C)[C@@H]1CCOc1cccnc1C(=O)O (stereo partly drawn) [Compound 431, 3-(2-((3R,4aR,6aS,7R,10bR)-3-cyclopentyl-6a,10b-dimethyl-8-dihydromethylenedecahydro-1H-naphtho[2,1-d][1,3]dioxin-7-yl)ethoxy)-2-picolinic acid]	> 60%
C=C1CCC2[C@]3(C)CO[C@@H](C4CCCC4)O[C@@H]3CC[C@@]2(C)[C@@H]1CCOc1ccc(C(=O)O)nc1 (stereo partly drawn) [Compound 432, 5-(2-((3R,4aR,6aS,7R,10bR)-3-cyclopentyl-6a,10b-dimethyl-8-dihydromethylenedecahydro-1H-naphtho[2,1-d][1,3]dioxin-7-yl)ethoxy)-2-picolinic acid]	> 60%
C=C1CCC2[C@]3(C)CO[C@@H](C4CCCC4)O[C@@H]3CC[C@@]2(C)[C@@H]1CCN1CCN(C)CC1 (stereo partly drawn) [Compound 433, 1-(2-((3R,4aR,6aS,7R,10bR)-3-cyclopentyl-6a,10b-dimethyl-8-methylene-decahydro-1H-naphtho[2,1-d][1,3]dioxin-7-yl)ethyl)-4-methylpiperazine]	> 60%
C=C1CCC2[C@]3(C)CO[C@@H](C4CCCC4)O[C@@H]3CC[C@@]2(C)[C@@H]1CCN1CCC[C@H]1C(=O)O (stereo partly drawn) [Compound 435]	< 30%
C=C1CCC2[C@]3(C)CO[C@@H](C4CCCC4)O[C@@H]3CC[C@@]2(C)[C@@H]1CCOc1ncccc1C(=O)O (stereo partly drawn) [Compound 436, 2-(2-((3R,4aR,6aS,7R,10bR)-3-cyclopentyl-6a,10b-dimethyl-8-dihydromethylenedecahydro-1H-naphtho[2,1-d][1,3]dioxin-7-yl)ethoxy)nicotinic acid]	< 30%
C=C1CCC2[C@]3(C)CO[C@@H](C4CCCC4)O[C@@H]3CC[C@@]2(C)[C@@H]1CCOc1cc(F)ccc1C(=O)O (stereo partly drawn) [Compound 441, 2-(2-((3R,4aR,6aS,7R,10bR)-3-cyclopentyl-6a,10b-dimethyl-8-dihydromethylenedecahydro-1H-naphtho[2,1-d][1,3]dioxin-7-yl)ethoxy)-4-fluorobenzoic acid]	30 to 60%
C=C1CCC2[C@]3(C)CO[C@@H](C4CCCC4)O[C@@H]3CC[C@@]2(C)[C@@H]1CCOc1cncc(OC)c1 (stereo partly drawn) [Compound 442, 3-(2-((3R,4aR,6aS,7R,10bR)-3-cyclopentyl-6a,10b-dimethyl-8-dihydromethylenedecahydro-1H-naphtho[2,1-d][1,3]dioxin-7-yl)ethoxy)-5-methoxypyridine]	30 to 60%
C=C1CCC2[C@]3(C)CO[C@@H](C4CCCC4)O[C@@H]3CC[C@@]2(C)[C@@H]1CCOc1cncc(O)c1 (stereo partly drawn) [Compound 443, 5-(2-((3R,4aR,6aS,7R,10bR)-3-cyclopentyl-6a,10b-dimethyl-8-dihydromethylenedecahydro-1H-naphtho[2,1-d][1,3]dioxin-7-yl)ethoxy)-pyridin-3-ol]	30 to 60%
C=C1CCC2[C@]3(C)CO[C@@H](C4CCCC4)O[C@@H]3CC[C@@]2(C)[C@@H]1CCOc1cc(C#N)ccc1C(=O)O (stereo partly drawn) [Compound 445, 4-cyano-2-(2-((3R,4aR,6aS,7R,10bR)-3-cyclopentyl-6a,10b-dimethyl-8-dihydromethylenedecahydro-1H-naphtho[2,1-d][1,3]dioxin-7-yl)ethoxy)benzoic acid]	< 30%
C=C1CCC2[C@]3(C)CO[C@@H](C4CCOCC4)O[C@@H]3CC[C@@]2(C)[C@@H]1CCOc1ccncc1 (stereo partly drawn) [Compound 446, 4-(2-((3R,4aR,6aS,7R,10bR)-6a,10b-dimethyl-8-dihydromethylene-3-(tetrahydro-2H-pyran-4-yl)decahydro-1H-naphtho[2,1-d][1,3]dioxin-7-yl)ethoxy)pyridine]	< 30%
C=C1CCC2[C@]3(C)CO[C@@H](C4CCCC4)O[C@@H]3CC[C@@]2(C)[C@@H]1CCOc1cc(C)ccc1C(=O)O (stereo partly drawn) [Compound 447, 2-(2-((3R,4aR,6aS,7R,10bR)-3-cyclopentyl-6a,10b-dimethyl-8-dihydromethylenedecahydro-1H-naphtho[2,1-d][1,3]dioxin-7-yl)ethoxy)-4-methylbenzoic acid]	< 30%
C=C1CCC2[C@]3(C)CO[C@@H](C4CCCC4)O[C@@H]3CC[C@@]2(C)[C@@H]1CCN1CCC[C@@H]1C(=O)O (stereo partly drawn) [Compound 450]	> 60%
C=C1CCC2[C@]3(C)CO[C@@H](C4CCCC4)O[C@@H]3CC[C@@]2(C)[C@@H]1CCN1CCCC[C@@H]1C(=O)O (stereo partly drawn) [Compound 451, (2R)-1-(2-((3R,4aR,6aS,7R,10bR)-3-cyclopentyl-6a,10b-dimethyl-8-methylene-decahydro-1H-naphtho[2,1-d][1,3]dioxin-7-yl)ethyl)piperidine-2-carboxylic acid]	30 to 60%
C=C1CCC2[C@]3(C)CO[C@@H](C4CCCC4)O[C@@H]3CC[C@@]2(C)[C@@H]1CCOc1cccc(F)c1C(=O)O (stereo partly drawn) [Compound 452, 2-(2-((3R,4aR,6aS,7R,10bR)-3-cyclopentyl-6a,10b-dimethyl-8-dihydromethylenedecahydro-1H-naphtho[2,1-d][1,3]dioxin-7-yl)ethoxy)-6-fluoro-benzoic acid]	30 to 60%
C=C1CCC2[C@]3(C)CO[C@@H](C4CCCC4)O[C@@H]3CC[C@@]2(C)[C@@H]1CCOc1cscc1C(=O)O (stereo partly drawn) [Compound 453, 4-(2-((3R,4aR,6aS,7R,10bR)-3-cyclopentyl-6a,10b-dimethyl-8-dihydromethylenedecahydro-1H-naphtho[2,1-d][1,3]dioxin-7-yl)ethoxy)thiophene-3-carboxylic acid]	> 60%
C=C1CCC2[C@]3(C)CO[C@@H](C4CCCC4)O[C@@H]3CC[C@@]2(C)[C@@H]1CCOc1cnc(C(=O)O)nc1 (stereo partly drawn) [Compound 454, 5-(2-((3R,4aR,6aS,7R,10bR)-3-cyclopentyl-6a,10b-dimethyl-8-dihydromethylenedecahydro-1H-naphtho[2,1-d][1,3]dioxin-7-yl)ethoxy)pyrimidine-2-carboxylic acid]	30 to 60%
C=C1CCC2[C@]3(C)CO[C@@H](C4CCCC4)O[C@@H]3CC[C@@]2(C)[C@@H]1CCN1CCOC[C@@H]1C(=O)O (stereo partly drawn) [Compound 456]	> 60%
C=C1CCC2[C@]3(C)CO[C@@H](C4CCCC4)O[C@@H]3CC[C@@]2(C)[C@@H]1CCn1cc(C(=O)O)cn1 (stereo partly drawn) [Compound 458, 1-(2-((3R,4aR,6aS,7R,10bR)-3-cyclopentyl-6a,10b-dimethyl-8-dihydromethylene-1H-naphtho[2,1-d][1,3]dioxin-7-yl)ethyl)-1H-pyrazole-4-carboxylic acid]	30 to 60%
C=C1CCC2[C@]3(C)CO[C@@H](C4CCCC4)O[C@@H]3CC[C@@]2(C)[C@@H]1CCOC1CCN(C(C)(C)C(=O)O)CC1 (stereo partly drawn) [Compound 463]	> 60%
